Assay results published in patent publication US12077503B2, “Substituted cyclic amides and their use as herbicides” (FMC CORPORATION, priority 2015, dated 2024).
Read-outs that look alike come from different tables or passages of the source.

Assays:
Test in all cases: Test A preemergence
Type in all cases: in vivo
[1] = system: Kochia (Kochia scoparia); conditions: Bassia scoparia, pre-emergence, 240 h; for pest or weed control at 125 g/ha: 125 g ai/ha; for pest or weed control at 500 g/ha: 500 g ai/ha
In short: (§1)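 Preemergence soil spray on seeded pots or post-emergence spray on 1–2 leaf plants, in loam–sand blend. Greenhouse ~10 d. Visual rating 0–100 against untreated plants.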

[2] = system: barnyardgrass (Echinochloa crus-galli); conditions: Echinochloa crus-galli, pre-emergence, 240 h; for pest or weed control at 125 g/ha: 125 g ai/ha; for pest or weed control at 500 g/ha: 500 g ai/ha
In short: as §1

[3] = system: giant foxtail (Setaria faberii); conditions: Setaria faberi, pre-emergence, 240 h; for pest or weed control at 125 g/ha: 125 g ai/ha; for pest or weed control at 500 g/ha: 500 g ai/ha
In short: as §1

[4] = system: ragweed (common ragweed, Ambrosia elatior); conditions: Ambrosia artemisiifolia, pre-emergence, 240 h; for pest or weed control at 125 g/ha: 125 g ai/ha; for pest or weed control at 500 g/ha: 500 g ai/ha
In short: as §1

[5] = system: ryegrass, Italian (Italian ryegrass, Lolium multiflorum); conditions: Lolium multiflorum, pre-emergence, 240 h; for pest or weed control at 125 g/ha: 125 g ai/ha; for pest or weed control at 500 g/ha: 500 g ai/ha
In short: as §1

[6] = preemergence, 0 to 100 scale where 0 is no effect and 100 is complete control, approx. 10 d, read-out: Kochia plant response rating
[7] = preemergence, 0 to 100 scale where 0 is no effect and 100 is complete control, read-out: Kochia plant response rating
[8] = preemergence, 0 to 100 scale where 0 is no effect and 100 is complete control, approx. 10 d, read-out: Barnyardgrass plant response rating
[9] = preemergence, visual injury rating about 10 d after treatment, 0 to 100 scale (0 no effect, 100 complete control), read-out: Barnyardgrass plant response rating
[10] = preemergence, 0 to 100 scale where 0 is no effect and 100 is complete control, approx. 10 d, read-out: Foxtail, Giant plant response rating
[11] = preemergence, 0 to 100 scale where 0 is no effect and 100 is complete control, read-out: Foxtail, Giant plant response rating
[12] = preemergence, 0 to 100 scale where 0 is no effect and 100 is complete control, approx. 10 d, read-out: Ragweed plant response rating
[13] = preemergence, 0 to 100 scale where 0 is no effect and 100 is complete control, read-out: Ragweed plant response rating
[14] = preemergence, 0 to 100 scale where 0 is no effect and 100 is complete control, approx. 10 d, read-out: Ryegrass, Italian plant response rating
[15] = preemergence, 0 to 100 scale where 0 is no effect and 100 is complete control, read-out: Ryegrass, Italian plant response rating
[16] = Preemergence, visual injury vs untreated controls after approximately 10 d, read-out: Kochia plant response rating (0 to 100 scale where 0 is no effect and 100 is complete control)
[17] = preemergence, 0 to 100 scale where 0 is no effect and 100 is complete control, read-out: Barnyardgrass plant response rating
[18] = Preemergence, visual injury vs untreated controls after approximately 10 d, read-out: Barnyardgrass plant response rating (0 to 100 scale where 0 is no effect and 100 is complete control)
[19] = Preemergence, visual injury vs untreated controls after approximately 10 d, read-out: Foxtail, Giant plant response rating (0 to 100 scale where 0 is no effect and 100 is complete control)
[20] = Preemergence, visual injury vs untreated controls after approximately 10 d, read-out: Ragweed plant response rating (0 to 100 scale where 0 is no effect and 100 is complete control)
[21] = Preemergence, visual injury vs untreated controls after approximately 10 d, read-out: Ryegrass, Italian plant response rating (0 to 100 scale where 0 is no effect and 100 is complete control)
[22] = Preemergence, visual injury rating after approximately 10 d, read-out: Kochia plant response rating (0 to 100 scale, 0 is no effect, 100 is complete control)
[23] = preemergence, visual injury rating about 10 d after treatment, 0 to 100 scale (0 no effect, 100 complete control), read-out: Kochia plant response rating
[24] = Preemergence, visual injury rating after approximately 10 d, read-out: Barnyardgrass plant response rating (0 to 100 scale, 0 is no effect, 100 is complete control)
[25] = Preemergence, visual injury rating after approximately 10 d, read-out: Foxtail, Giant plant response rating (0 to 100 scale, 0 is no effect, 100 is complete control)
[26] = preemergence, visual injury rating about 10 d after treatment, 0 to 100 scale (0 no effect, 100 complete control), read-out: Foxtail, Giant plant response rating
[27] = Preemergence, visual injury rating after approximately 10 d, read-out: Ragweed plant response rating (0 to 100 scale, 0 is no effect, 100 is complete control)
[28] = preemergence, visual injury rating about 10 d after treatment, 0 to 100 scale (0 no effect, 100 complete control), read-out: Ragweed plant response rating
[29] = Preemergence, visual injury rating after approximately 10 d, read-out: Ryegrass, Italian plant response rating (0 to 100 scale, 0 is no effect, 100 is complete control)
[30] = preemergence, visual injury rating about 10 d after treatment, 0 to 100 scale (0 no effect, 100 complete control), read-out: Ryegrass, Italian plant response rating

Row | Structure (SMILES) | pest or weed control at 125 g/ha [1, 6] | pest or weed control at 500 g/ha [1, 7] | pest or weed control at 125 g/ha [2, 8] | pest or weed control at 500 g/ha [2, 9] | pest or weed control at 125 g/ha [3, 10] | pest or weed control at 500 g/ha [3, 11] | pest or weed control at 125 g/ha [4, 12] | pest or weed control at 500 g/ha [4, 13] | pest or weed control at 125 g/ha [5, 14] | pest or weed control at 500 g/ha [5, 15] | pest or weed control at 125 g/ha [1, 7] | pest or weed control at 500 g/ha [1, 16] | pest or weed control at 125 g/ha [2, 17] | pest or weed control at 500 g/ha [2, 18] | pest or weed control at 125 g/ha [3, 11] | pest or weed control at 500 g/ha [3, 19] | pest or weed control at 125 g/ha [4, 13] | pest or weed control at 500 g/ha [4, 20] | pest or weed control at 125 g/ha [5, 15] | pest or weed control at 500 g/ha [5, 21] | further results
1 | Cc1cc([C@H]2CN(C)C(=O)[C@@H]2C(=O)Nc2ccccc2S(C)(=O)=O)ccc1Br [Compound 1102] | 20% | 70% | 90% | 90% | 90% | 90% | 0% | 50% | 30% | 60% | – | – | – | – | – | – | – | – | – | – | –
2 | CSc1ccccc1NC(=O)[C@H]1C(=O)N(C)C[C@@H]1c1cc(C)cc(F)c1 [Compound 851] | – | – | – | – | – | – | – | – | – | – | 20% | 70% | 90% | 90% | 90% | 90% | 0% | 30% | 0% | 70% | –
3 | O=C1NC[C@H](c2cc(F)c(C(F)(F)F)c(F)c2)[C@H]1C(=O)Nc1cccc(F)c1F [Compound 838] | – | – | – | – | – | – | – | – | – | – | 70% | 80% | 90% | 90% | 90% | 90% | 40% | 60% | 20% | 60% | –
4 | CC(C)Oc1ccc([C@H]2CN(C)C(=O)[C@@H]2C(=O)Nc2ccc(F)cc2F)cc1 [Compound 954] | – | – | – | 90% | – | – | – | – | – | – | – | – | – | – | – | – | – | – | – | – | pest or weed control at 125 g/ha [1, 22]: 0%; pest or weed control at 500 g/ha [1, 23]: 20%; pest or weed control at 125 g/ha [2, 24]: 70%; pest or weed control at 125 g/ha [3, 25]: 90%; pest or weed control at 500 g/ha [3, 26]: 90%; pest or weed control at 125 g/ha [4, 27]: 0%; pest or weed control at 500 g/ha [4, 28]: 0%; pest or weed control at 125 g/ha [5, 29]: 0%; pest or weed control at 500 g/ha [5, 30]: 0%
5 | Cc1ccc([C@H]2CNC(=O)[C@@H]2C(=O)Nc2cccc(F)c2F)cc1C [Compound 1034] | – | – | – | 90% | – | – | – | – | – | – | – | – | – | – | – | – | – | – | – | – | pest or weed control at 125 g/ha [1, 22]: 60%; pest or weed control at 500 g/ha [1, 23]: 70%; pest or weed control at 125 g/ha [2, 24]: 90%; pest or weed control at 125 g/ha [3, 25]: 80%; pest or weed control at 500 g/ha [3, 26]: 90%; pest or weed control at 125 g/ha [4, 27]: 30%; pest or weed control at 500 g/ha [4, 28]: 90%; pest or weed control at 125 g/ha [5, 29]: 20%; pest or weed control at 500 g/ha [5, 30]: 60%
6 | O=C1NC[C@H](c2ccc(F)c(OC(F)(F)C(F)F)c2)[C@H]1C(=O)Nc1cccc(F)c1F [Compound 1131] | 100% | 90% | 90% | – | 90% | 90% | 60% | 80% | 0% | 70% | – | – | – | – | – | – | – | – | – | – | pest or weed control at 500 g/ha [2, 17]: 90%
